In brackets after ≈: the same amount, converted by molar mass. Read-outs that look alike come from different tables or passages of the source.
How the values were obtained:
[1] = rat, in vivo; cited from earlier work
HSA = settings: cited from earlier work; for binding constant to HSA: ref [59]
[2] = parameters: method as in Strugała et al. [46]; settings: ref Strugała et al. [46]; read-out: IC50 AAPH PC (inhibition of AAPH induced oxidation of phosphatidylcholine liposomes); cited from earlier work
[3] = cited from earlier work
[4] = Solubility in water (literature values); type: physicochemical; settings: from cited values

**Q.** Which “absorption, higher compared to quercetin itself” value [1] does the source give for O=c1c(O[C@@H]2O[C@H](CO)[C@@H](O)[C@H](O)[C@H]2O)c(-c2ccc(O)c(O)c2)oc2cc(O)cc(O)c12 [3-O-glucoside of quercetin] here?
**A.** 184%

**Q.** Which “binding constant to HSA” value (HSA) does the source give for COc1ccc2c(c1)c(CC(=O)O)c(C)n2C(=O)c1ccc(Cl)cc1 [Indomethacin, indomethacin] here?
**A.** ~489000 M⁻¹

**Q.** For O=C1O[C@H]([C@@H](O)CO)C(O)=C1O [L(+) ascorbic acid, L-(+)-ascorbic acid], which IC50 [2] is on record?
**A.** 129 ± 12.4 µM

**Q.** For CC(=O)Oc1ccccc1C(=O)O [aspirin], which “binding constant to HSA” value (HSA) is on record?
**A.** approximately 1.4 × 10^4 M^−1

**Q.** With Cc1cnc(NC(=O)C2=C(O)c3ccccc3S(=O)(=O)N2C)s1 [meloxicam] as the compound, how does the “association constant to HSA” value (HSA; order of magnitude, ref [58]) read?
**A.** ~10^5 M^−1

**Q.** What about the “bound to HSA” value (HSA; ref [58]) of the same compound?
**A.** more than 99%

**Q.** Which solubility ([3]; at 20 °C, ref [9]) does the source give for O=C1C[C@@H](c2ccc(O)cc2)Oc2cc(O)cc(O)c21 [naringenin] here?
**A.** 4.38 µg/mL (≈ 16.1 µM)

**Q.** What does the source list for C[C@@H]1O[C@@H](O[C@H]2[C@H](Oc3cc(O)c4c(c3)O[C@H](c3ccc(O)cc3)CC4=O)O[C@H](CO)[C@@H](O)[C@@H]2O)[C@H](O)[C@H](O)[C@H]1O [naringin]?
**A.** solubility, fold higher than aglycone naringenin [4]: more than 110 fold; solubility ([3]; ref [10]): 500 µg/mL (≈ 861 µM)

— publication PMC6151435, “Bioactivity In Vitro of Quercetin Glycoside Obtained in Beauveria bassiana Culture and Its Interaction with Liposome Membranes” (Molecules : A Journal of Synthetic Chemistry and Natural …, 2017)
